Data set [1] can be described thus: Inhibition of full-length huntingtin Q138 mutant (unknown origin) expressed in human T-RexTM-293 cells co-expressing CRE-Luc assessed as decrease of CREB-mediated transcription after 72 hrs by luciferase reporter gene based luminescence assay. It counts as cell-based. Particulars: HEK293, 72 h. (In a reporter assay the amount or activity of a reporter protein is the signal.)

The subject of data set [2] is HEK293. The data set can be described thus: Inhibition of full-length huntingtin Q138 mutant (unknown origin) expressed in human T-RexTM-293 cells co-expressing CRE-Luc assessed as decrease of CREB-mediated transcription up to 50 uM after 72 hrs by luciferase reporter gene based luminescence assay. It counts as cell-based.
Data set [3] in a line: Kinetic solubility of the compound at pH 7.4. Conditions: buffer, read-out: Kinetic_solubility. Type of data set: physicochemical.
Data set [4] concerns the target Huntingtin (Rattus norvegicus) (UniProt P51111). The data set can be described thus: Inhibition of wild type huntingtin 171-18Q-mediated cell death in Sprague-Dawley rat striatal neurons at 1 to 30 uM by NeuN-positive cell counting assay.
The species named for data set [5] is Rattus norvegicus. The data set can be described thus: Inhibition of huntingtin 171-82Q mutant-mediated cell death in Sprague-Dawley rat striatal neurons at 10 to 30 uM by NeuN-positive cell counting assay.
The nature of data set [6]: Intrinsic clearance in human liver microsomes at 1 uM in presence of NADPH. It counts as ADME, Microsome. Particulars: read-out: CLH. For orientation: Liver microsomes are vesicles of endoplasmic reticulum, rich in cytochrome P450 enzymes.
A short description of data set [7]: Permeability of the compound from apical to basolateral side of MDCK cells expressing MDR1 after 120 mins. Type of data set: ADME, cell-based, Canis lupus familiaris. Conditions: dog, read-out: permeability.
Data set [8] can be described thus: Cytotoxicity in Sprague-Dawley rat striatal neurons. Type of data set: cell-based. Particulars: neuron.
Data set [9] is described as follows: Intrinsic clearance in mouse liver microsomes at 1 uM in presence of NADPH. It counts as ADME, Microsome. Conditions: read-out: CLH.
A short description of data set [10]: Stability of the compound at pH 3 to 7.4 assessed as dehydration. Conditions: buffer. It counts as physicochemical.
Data set [11] concerns HEK293. Kind of data set: Inhibition of full-length huntingtin Q138 mutant (unknown origin) expressed in human T-RexTM-293 cells co-expressing CRE-Luc assessed as decrease of CREB-mediated transcription after 72 hrs by luciferase reporter gene based luminescence assay relative to control. Type of data set: cell-based.
Data set [12] has as its system MDCK. The data set can be described thus: Efflux ratio of permeability […] in MDCK cells expressing MDR1 after 120 mins. Type of data set: ADME, cell-based, Canis lupus familiaris. Particulars: dog, 2 h.

Values after ≈ are worked out from the molar mass of the structure shown. Active and inactive are the calls of the source. The calls are words filed in the database; no cut-off is given here. A value given as a limit tells only on which side of the number the result lay.

In general, EC50 refers to the concentration that produces a half-maximal response. In general, Emax refers to the greatest response seen or fitted, relative to the assay's reference.

Huntingtin (Rattus norvegicus), sequence (P51111 whole entry): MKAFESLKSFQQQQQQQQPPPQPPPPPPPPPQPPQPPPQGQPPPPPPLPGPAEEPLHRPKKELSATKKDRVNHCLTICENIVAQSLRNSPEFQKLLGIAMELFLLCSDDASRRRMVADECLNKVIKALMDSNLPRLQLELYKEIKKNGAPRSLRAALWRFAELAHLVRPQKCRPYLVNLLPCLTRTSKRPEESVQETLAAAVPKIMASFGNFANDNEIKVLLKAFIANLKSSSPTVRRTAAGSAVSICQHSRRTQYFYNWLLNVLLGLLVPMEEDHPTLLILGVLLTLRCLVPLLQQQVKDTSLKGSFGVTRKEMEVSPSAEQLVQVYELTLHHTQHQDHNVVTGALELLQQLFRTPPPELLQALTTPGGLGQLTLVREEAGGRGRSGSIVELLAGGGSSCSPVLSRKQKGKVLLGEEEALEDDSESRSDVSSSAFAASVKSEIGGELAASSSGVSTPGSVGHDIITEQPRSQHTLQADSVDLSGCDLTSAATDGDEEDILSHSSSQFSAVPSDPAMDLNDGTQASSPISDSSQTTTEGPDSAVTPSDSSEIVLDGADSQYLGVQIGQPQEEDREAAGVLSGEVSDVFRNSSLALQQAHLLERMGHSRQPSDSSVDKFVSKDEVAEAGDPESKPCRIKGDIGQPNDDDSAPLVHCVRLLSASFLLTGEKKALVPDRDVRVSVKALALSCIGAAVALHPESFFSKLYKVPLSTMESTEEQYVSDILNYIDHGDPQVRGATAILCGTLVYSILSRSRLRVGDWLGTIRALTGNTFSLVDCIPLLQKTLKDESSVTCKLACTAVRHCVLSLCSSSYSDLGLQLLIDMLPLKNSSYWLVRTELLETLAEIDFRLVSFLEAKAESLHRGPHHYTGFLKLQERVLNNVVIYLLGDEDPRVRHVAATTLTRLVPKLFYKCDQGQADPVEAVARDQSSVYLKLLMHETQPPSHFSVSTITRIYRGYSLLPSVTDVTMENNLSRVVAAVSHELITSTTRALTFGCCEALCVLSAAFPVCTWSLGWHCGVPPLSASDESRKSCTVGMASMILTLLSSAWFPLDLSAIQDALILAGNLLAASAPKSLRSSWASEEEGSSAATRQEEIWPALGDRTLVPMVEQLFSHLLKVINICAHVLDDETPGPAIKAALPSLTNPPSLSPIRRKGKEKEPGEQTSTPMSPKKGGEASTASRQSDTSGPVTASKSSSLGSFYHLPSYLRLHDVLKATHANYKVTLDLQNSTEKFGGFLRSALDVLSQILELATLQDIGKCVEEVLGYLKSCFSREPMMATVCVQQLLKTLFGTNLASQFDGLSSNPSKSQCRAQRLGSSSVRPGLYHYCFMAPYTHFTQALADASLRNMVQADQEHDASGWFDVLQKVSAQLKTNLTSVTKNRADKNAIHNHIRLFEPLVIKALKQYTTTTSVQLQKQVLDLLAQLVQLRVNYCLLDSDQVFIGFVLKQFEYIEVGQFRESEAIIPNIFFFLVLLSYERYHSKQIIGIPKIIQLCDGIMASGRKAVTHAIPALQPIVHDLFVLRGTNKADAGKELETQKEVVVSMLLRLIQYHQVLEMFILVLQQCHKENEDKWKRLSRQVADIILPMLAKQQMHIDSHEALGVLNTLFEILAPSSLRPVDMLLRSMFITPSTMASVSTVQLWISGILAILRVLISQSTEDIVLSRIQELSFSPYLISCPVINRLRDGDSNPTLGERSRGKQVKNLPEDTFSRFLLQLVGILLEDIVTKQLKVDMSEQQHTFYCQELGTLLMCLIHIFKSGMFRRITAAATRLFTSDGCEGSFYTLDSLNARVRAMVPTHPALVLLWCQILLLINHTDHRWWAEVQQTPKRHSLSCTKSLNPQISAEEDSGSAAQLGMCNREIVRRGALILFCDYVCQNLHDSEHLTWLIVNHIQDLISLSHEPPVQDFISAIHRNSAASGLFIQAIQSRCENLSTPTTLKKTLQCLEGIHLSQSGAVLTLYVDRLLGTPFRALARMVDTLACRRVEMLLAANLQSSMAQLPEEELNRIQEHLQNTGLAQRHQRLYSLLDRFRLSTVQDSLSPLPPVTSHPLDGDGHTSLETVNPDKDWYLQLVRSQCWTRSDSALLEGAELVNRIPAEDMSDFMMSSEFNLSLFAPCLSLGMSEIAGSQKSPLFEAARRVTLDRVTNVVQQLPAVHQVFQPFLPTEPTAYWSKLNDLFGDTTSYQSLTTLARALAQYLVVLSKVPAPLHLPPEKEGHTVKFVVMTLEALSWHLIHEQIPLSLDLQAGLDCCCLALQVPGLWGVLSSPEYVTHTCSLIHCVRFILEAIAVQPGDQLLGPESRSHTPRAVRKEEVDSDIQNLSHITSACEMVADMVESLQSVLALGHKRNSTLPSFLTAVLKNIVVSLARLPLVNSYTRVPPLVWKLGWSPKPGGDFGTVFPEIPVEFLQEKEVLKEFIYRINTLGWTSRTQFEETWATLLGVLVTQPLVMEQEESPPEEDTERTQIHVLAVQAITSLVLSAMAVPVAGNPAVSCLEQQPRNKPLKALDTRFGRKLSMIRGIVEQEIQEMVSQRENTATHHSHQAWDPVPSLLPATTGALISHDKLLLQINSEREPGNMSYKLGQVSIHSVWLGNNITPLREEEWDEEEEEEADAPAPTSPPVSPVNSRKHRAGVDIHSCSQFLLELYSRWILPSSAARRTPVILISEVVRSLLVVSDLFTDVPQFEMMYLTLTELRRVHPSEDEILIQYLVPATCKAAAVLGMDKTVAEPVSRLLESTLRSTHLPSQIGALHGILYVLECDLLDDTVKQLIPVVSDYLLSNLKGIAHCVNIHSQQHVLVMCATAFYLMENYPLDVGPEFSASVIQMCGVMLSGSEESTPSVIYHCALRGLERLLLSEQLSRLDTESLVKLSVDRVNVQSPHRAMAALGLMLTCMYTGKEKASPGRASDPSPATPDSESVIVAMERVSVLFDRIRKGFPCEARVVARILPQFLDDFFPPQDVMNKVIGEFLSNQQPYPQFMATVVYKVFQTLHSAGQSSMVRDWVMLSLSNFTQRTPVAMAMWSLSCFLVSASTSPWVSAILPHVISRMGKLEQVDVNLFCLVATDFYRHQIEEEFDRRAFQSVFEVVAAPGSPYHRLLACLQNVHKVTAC

Take `CC1=NN(C(=O)c2cccc(C)c2O)C(O)(C(F)(F)F)C1C` (stereo unspecified): in data set [1], the EC50 is more than 50 µM. Also, the inhibition entry in data set [2] was “inactive”. In data set [3], the solubility kinetic was determined as 5 µM (≈ 1.58 µg/mL).

Regarding `Cn1cnc(S(=O)(=O)N2N=C3CCCC[C@@H]3[C@@]2(O)C(F)(F)F)c1` (racemic), the inhibition entry in data set [4] and in data set [5] was “Active” throughout. Besides, the microsomal CLint at 1 µM is 37.6 µL/min/mg in data set [6] and 28.3 µL/min/mg in data set [9]. Further, in [7], the Papp A→B at 2 h amounted to 12.8 ×10⁻⁶ cm/s. Moreover, in data set [1], the concentration for a half-maximal effect (EC50) came to 1.7 µM. The Activity entry in data set [8] is “Non-toxic”. In [10], the Stability result is on record as “Stable”. Also, the solubility kinetic in data set [3] worked out at 156 µM (≈ 55 µg/mL). For the same compound, the Emax in data set [11] is 41%. Further, in [12], the Ratio amounted to 0.9.

Regarding `Cc1cccc(C(=O)N2N=C3CCCC[C@@H]3[C@@]2(O)C(F)(F)F)c1O` (racemic), the microsomal CLint at 1 µM is 352 µL/min/mg in data set [6] and more than 700 µL/min/mg in data set [9]. Further, in data set [7], the Papp A→B at 2 h came out at 31.6 ×10⁻⁶ cm/s. Besides, the EC50 in data set [1] came out at 5.2 µM. Besides, the Stability result in data set [10] was “Stable”. Further, the solubility kinetic in data set [3] was 101 µM (≈ 34.6 µg/mL). For the same compound, the Emax in [11] was found to be 32%. For the same compound, in data set [12], the Ratio is listed as 0.8.

As for `Cn1cc(Br)c(C(=O)N2N=C3CCCC[C@@H]3[C@@]2(O)C(F)(F)F)n1` (racemic), the inhibition entry in [4] and in [5] was “Active” in each case. Moreover, the microsomal CLint at 1 µM was found to be 17.7 µL/min/mg in [6] and 101 µL/min/mg in data set [9]. The Papp A→B at 2 h in data set [7] turned out to be 39.3 ×10⁻⁶ cm/s. In [1], the EC50 was 4.9 µM. Besides, in data set [8], the Activity entry was “Non-toxic”. Further, the Stability result in [10] is recorded as “Stable”. Also, in data set [3], the solubility kinetic was found to be 114 µM (≈ 45.1 µg/mL). For the same compound, the Emax in data set [11] was determined as 29%. In addition, the Ratio in [12] was 1.

In the case of `O=C(c1ccncc1)N1N=C2CCCC[C@@H]2[C@@]1(O)C(F)(F)F` (racemic), the inhibition entry in data set [4] and in data set [5] was “Active” each time. Besides, the microsomal CLint at 1 µM worked out at 21.4 µL/min/mg in data set [6] and 54.6 µL/min/mg in [9]. Also, the Papp A→B at 2 h in data set [7] came to 36 ×10⁻⁶ cm/s. The EC50 in data set [1] was determined as 9.1 µM. The Activity result in [8] is “Non-toxic”. Further, the Stability result in [10] is “Stable”. Further, in data set [3], the solubility kinetic turned out to be 98 µM (≈ 30.7 µg/mL). In addition, the Emax in data set [11] was 42%. The Ratio in data set [12] is recorded as 1.1.

Take `O=C(c1ccc[nH]1)N1N=C2CCCC[C@@H]2[C@@]1(O)C(F)(F)F` (racemic): in data set [1], the EC50 was 28.7 µM. In addition, the Stability result in data set [10] was “Stable”. Also, the solubility kinetic in [3] is 72 µM (≈ 21.7 µg/mL). Further, the Emax in [11] stood at 20%.

As to `Cc1ccc(C(=O)N2N=C3CCCC[C@@H]3[C@@]2(O)C(F)(F)F)cn1` (racemic), the microsomal CLint at 1 µM in [6] is 19.2 µL/min/mg; in [9] it was 174 µL/min/mg. The Papp A→B at 2 h in data set [7] is 43.4 ×10⁻⁶ cm/s. In addition, in [1], the EC50 amounted to 3.7 µM. Also, in [10], the Stability entry is on record as “Stable”. Moreover, the solubility kinetic in [3] came out at 212 µM (≈ 69.4 µg/mL). In data set [11], the Emax came out at 43%. The Ratio in data set [12] was determined as 1.5.

Consider `Cn1cc(N)c(C(=O)N2N=C3CCCC[C@@H]3[C@@]2(O)C(F)(F)F)n1` (racemic), for which the microsomal CLint at 1 µM in [6] is less than 5 µL/min/mg; in data set [9], 22.9 µL/min/mg. Also, in data set [7], the Papp A→B at 2 h worked out at 17.2 ×10⁻⁶ cm/s. Also, in data set [1], the EC50 is 6.6 µM. Moreover, the Stability result in data set [10] was “Stable”. For the same compound, the solubility kinetic in [3] came to 205 µM (≈ 67.9 µg/mL). In addition, in [11], the Emax came out at 30%. Also, the Ratio in data set [12] is reported as 1.6.

Consider `Nc1nc(C(=O)N2N=C3CCCC[C@@H]3[C@@]2(O)C(F)(F)F)co1` (racemic), for which the values for the microsomal CLint at 1 µM in data set [6] and in data set [9] were 6.1 µL/min/mg and 21.1 µL/min/mg, respectively. Moreover, the Papp A→B at 2 h in data set [7] was 29.1 ×10⁻⁶ cm/s. The EC50 in data set [1] came out at 17.1 µM. Also, in [10], the Stability result is listed as “Stable”. In addition, the solubility kinetic in data set [3] amounted to 153 µM (≈ 48.7 µg/mL). For the same compound, the Emax in data set [11] is 21%. Moreover, the Ratio in data set [12] amounted to 1.1.

As to `CCNc1cn(C)nc1C(=O)N1N=C2CCCC[C@@H]2[C@@]1(O)C(F)(F)F` (racemic), in data set [1], the EC50 turned out to be 19.9 µM. Besides, in data set [10], the Stability entry is reported as “Stable”. The solubility kinetic in data set [3] turned out to be 182 µM (≈ 65.4 µg/mL). In addition, the Emax in [11] came to 37%.

As to `Cc1ccc(C(=O)N2N=C3CCCCC[C@@H]3[C@@]2(O)C(F)(F)F)cn1` (racemic), the EC50 in data set [1] was found to be 10 µM. The Stability entry in data set [10] is “Stable”. In data set [3], the solubility kinetic was 56 µM (≈ 19.1 µg/mL). The Emax in data set [11] was 30%.

`O=C(c1ccncc1)N1N=C2CCCCC[C@@H]2[C@@]1(O)C(F)(F)F` (racemic): the microsomal CLint at 1 µM in data set [6] was 71.9 µL/min/mg; in data set [9] it was 170 µL/min/mg. Moreover, the Papp A→B at 2 h in data set [7] was 36.2 ×10⁻⁶ cm/s. Besides, the EC50 in data set [1] was found to be 10.8 µM. In data set [10], the Stability result is “Stable”. Moreover, the solubility kinetic in data set [3] was found to be 96 µM (≈ 31.4 µg/mL). In addition, the Emax in [11] was 34%. Moreover, the Ratio in [12] turned out to be 1.

Regarding `O=C(c1ccc[nH]1)N1N=C2CCCCC[C@@H]2[C@@]1(O)C(F)(F)F` (racemic), in [1], the EC50 worked out at 14.2 µM. The Stability entry in data set [10] was “Stable”. For the same compound, the solubility kinetic in data set [3] stood at 30 µM (≈ 9.46 µg/mL). In addition, the Emax in data set [11] was 6%.

Take `O=C(c1cncc(Br)c1)N1N=C2CCOC[C@@H]2[C@@]1(O)C(F)(F)F` (racemic): the EC50 in data set [1] is 22.4 µM. Besides, the Stability entry in data set [10] is listed as “Stable”. Besides, in data set [3], the solubility kinetic was 111 µM (≈ 43.8 µg/mL). Moreover, in data set [11], the Emax stood at 24%.

`O=C(c1cccnc1)N1N=C2CCOC[C@@H]2[C@@]1(O)C(F)(F)F` (racemic): the microsomal CLint at 1 µM in data set [6] was 15.7 µL/min/mg; in data set [9], 16.6 µL/min/mg. The Papp A→B at 2 h in data set [7] came to 29.2 ×10⁻⁶ cm/s. Moreover, the EC50 in [1] came out at 6.1 µM. Also, the Stability entry in data set [10] is reported as “Stable”. Moreover, the solubility kinetic in data set [3] came out at 187 µM (≈ 59 µg/mL). Also, the Emax in data set [11] was 40%. In addition, the Ratio in [12] turned out to be 1.1.

For `CCOC(=O)c1c[nH]nc1S(=O)(=O)N1N=C2CCCC[C@@H]2[C@@]1(O)C(F)(F)F` (racemic), in [1], the EC50 was found to be 1.8 µM. For the same compound, the Stability entry in [10] is “Stable”. Further, the solubility kinetic in data set [3] turned out to be 111 µM (≈ 45.6 µg/mL). For the same compound, the Emax in data set [11] was determined as 34%.

As for `Cc1nn(C)c(Cl)c1S(=O)(=O)N1N=C2CCOC[C@@H]2[C@@]1(O)C(F)(F)F` (racemic), in data set [1], the EC50 is 30 µM. Also, the Stability entry in [10] was “Stable”. Also, in data set [11], the Emax was -17%.
